# Measurements published in publication PMC11637875, “Discovery of novel PARP1/NRP1 dual-targeting inhibitors with strong antitumor potency” (Frontiers in Pharmacology, 2024).
# What was measured:
# AurB = AurB (Homo sapiens, UniProt Q96GD4); assay: Selectivity profile (123 kinase panel); type: biochemical
# ACK = ACK (Homo sapiens, UniProt Q07912); assay: Selectivity profile (123 kinase panel); type: biochemical
# JAK2 = JAK2 (Homo sapiens, UniProt O60674); assay: Selectivity profile (123 kinase panel); type: biochemical
# EPHA2 = EPHA2 (Homo sapiens, UniProt P29317); assay: Selectivity profile (123 kinase panel); type: biochemical
# AKT1 = AKT1 (Homo sapiens, UniProt P31749); assay: Selectivity profile (123 kinase panel); type: biochemical
# FAK = FAK (Homo sapiens, UniProt Q05397); assay: Selectivity profile (123 kinase panel); type: biochemical
# MER = MER (Homo sapiens, UniProt Q12866); assay: Selectivity profile (123 kinase panel); type: biochemical
# AMPKα2/β1/γ1 = AMPKα2/β1/γ1 (Homo sapiens, UniProt P54619+P54646+Q9Y478); assay: Selectivity profile (123 kinase panel); type: biochemical
# CLK3 = CLK3 (Homo sapiens, UniProt P49761); assay: Selectivity profile (123 kinase panel); type: biochemical
# ITK = ITK (Homo sapiens, UniProt Q08881); assay: Selectivity profile (123 kinase panel); type: biochemical
# CHEK2 = CHEK2 (Homo sapiens, UniProt O96017); assay: Specificity testing by MST assay; type: binding
# Description: (§1) All samples were diluted in 1 × PBST. […] Affinity Analysis software.
# PARP14 = PARP14 (Homo sapiens, UniProt Q460N5); assay: Specificity testing by MST assay; type: binding
# Description: as §1
# PARP10 [1] = target: T1, PARP10 (Homo sapiens, UniProt Q53GL7); assay: Specificity testing by MST assay; type: binding
# Description: as §1
# PARP15 [2] = target: T2, PARP15 (Homo sapiens, UniProt Q460N3); assay: Specificity testing by MST assay; type: binding
# Description: as §1
# PARP13 = PARP13 (Homo sapiens, UniProt Q7Z2W4); assay: Specificity testing by MST assay; type: binding
# Description: as §1
# PARP3 = PARP3 (Homo sapiens, UniProt Q9Y6F1); assay: Specificity testing by MST assay; type: binding
# Description: as §1
# PARP2 = PARP2 (Homo sapiens, UniProt Q9UGN5); assay: Specificity testing by MST assay; type: binding
# Description: as §1
# PARP8 [3] = target: T3, PARP8 (Homo sapiens, UniProt Q8N3A8); assay: Specificity testing by MST assay; type: binding
# Description: as §1
# ATR = ATR (Homo sapiens, UniProt Q13535); assay: Specificity testing by MST assay; type: binding
# Description: as §1
# PARP7 = PARP7 (Homo sapiens, UniProt Q7Z3E1); assay: Specificity testing by MST assay; type: binding
# Description: as §1
# PARP9 = PARP9 (Homo sapiens, UniProt Q8IXQ6); assay: Specificity testing by MST assay; type: binding
# Description: as §1
# PARP12 = PARP12 (Homo sapiens, UniProt Q9H0J9); assay: Specificity testing by MST assay; type: binding
# Description: as §1
# RAD51 = RAD51 (Homo sapiens, UniProt Q06609); assay: Specificity testing by MST assay; type: binding
# Description: as §1
# NRP2 = NRP2 (Homo sapiens, UniProt O60462); assay: Specificity testing by MST assay; type: binding
# Description: as §1
# PARP10 [4] = target: T1, PARP10; assay: Selectivity profile (other isoforms of PARP and NRP family); type: biochemical
# PARP15 [5] = target: T2, PARP15; assay: as above; type: biochemical
# MARK4 = MARK4 (Homo sapiens, UniProt Q96L34); assay: Selectivity profile (123 kinase panel); type: biochemical
# DDR1 = DDR1 (Homo sapiens, UniProt Q08345); assay: Selectivity profile (123 kinase panel); type: biochemical
# BRSK1 = BRSK1 (Homo sapiens, UniProt Q8TDC3); assay: Selectivity profile (123 kinase panel); type: biochemical
# FGFR3 = FGFR3 (Homo sapiens, UniProt P22607); assay: Selectivity profile (123 kinase panel); type: biochemical
# HCK = HCK (Homo sapiens, UniProt P08631); assay: Selectivity profile (123 kinase panel); type: biochemical
# DYRK3 = DYRK3 (Homo sapiens, UniProt O43781); assay: Selectivity profile (123 kinase panel); type: biochemical
# JAK3 = JAK3 (Homo sapiens, UniProt P52333); assay: Selectivity profile (123 kinase panel); type: biochemical
# FLT3 = FLT3 (Homo sapiens, UniProt P36888); assay: Selectivity profile (123 kinase panel); type: biochemical
# BRK = BRK (Homo sapiens, UniProt Q13882); assay: Selectivity profile (123 kinase panel); type: biochemical
# NEK1 = NEK1 (Homo sapiens, UniProt Q96PY6); assay: Selectivity profile (123 kinase panel); type: biochemical
# INSR = INSR (Homo sapiens, UniProt P06213); assay: Selectivity profile (123 kinase panel); type: biochemical
# [6] = In vivo pharmacokinetic studies; set-up: species or system SD rats; conditions: Sprague-Dawley (SD), rat, plasma, po, 10 mg/kg
# Description: Blood samples (0.25 mL) were collected at 0.25, 0.5, 1, 2, 4, 8, 16, and 24 h after administration and centrifuged to obtain the plasma fraction. In a 96-well plate, the plasma sample (50 μL) was transferred, and the internal standard methanol/acetonitrile (1:1, v/v) solution (200 μL) was added. After vortexing for 5 min, the mixture was centrifuged (12,000 rpm, 5 min) and the supernatant was obtained (60.0 μL). Liquid chromatography and tandem mass spectrometry (LC-MS/MS) system was used to study pharmacokinetics. The data were processed by Phoenix.
# PARP8 [7] = target: T3, PARP8; assay: Selectivity profile (other isoforms of PARP and NRP family); type: biochemical
# LYNa = LYNa (Homo sapiens, UniProt P07948); assay: Selectivity profile (123 kinase panel); type: biochemical
# Sequence of LYNa (P07948 whole entry): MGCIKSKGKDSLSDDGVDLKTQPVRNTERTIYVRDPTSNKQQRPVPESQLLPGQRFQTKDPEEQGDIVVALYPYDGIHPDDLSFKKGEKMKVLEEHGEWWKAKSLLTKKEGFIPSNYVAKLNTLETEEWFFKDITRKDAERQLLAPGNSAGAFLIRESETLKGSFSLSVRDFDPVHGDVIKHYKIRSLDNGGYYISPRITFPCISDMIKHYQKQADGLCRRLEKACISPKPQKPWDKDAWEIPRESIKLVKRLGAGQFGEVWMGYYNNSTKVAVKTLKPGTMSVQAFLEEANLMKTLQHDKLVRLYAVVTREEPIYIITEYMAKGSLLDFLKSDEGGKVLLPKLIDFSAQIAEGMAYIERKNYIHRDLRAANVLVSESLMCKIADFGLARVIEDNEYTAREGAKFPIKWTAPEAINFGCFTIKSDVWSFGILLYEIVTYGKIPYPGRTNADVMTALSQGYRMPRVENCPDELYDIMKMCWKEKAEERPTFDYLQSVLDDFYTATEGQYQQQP
# T1 sequence (Q53GL7 whole entry): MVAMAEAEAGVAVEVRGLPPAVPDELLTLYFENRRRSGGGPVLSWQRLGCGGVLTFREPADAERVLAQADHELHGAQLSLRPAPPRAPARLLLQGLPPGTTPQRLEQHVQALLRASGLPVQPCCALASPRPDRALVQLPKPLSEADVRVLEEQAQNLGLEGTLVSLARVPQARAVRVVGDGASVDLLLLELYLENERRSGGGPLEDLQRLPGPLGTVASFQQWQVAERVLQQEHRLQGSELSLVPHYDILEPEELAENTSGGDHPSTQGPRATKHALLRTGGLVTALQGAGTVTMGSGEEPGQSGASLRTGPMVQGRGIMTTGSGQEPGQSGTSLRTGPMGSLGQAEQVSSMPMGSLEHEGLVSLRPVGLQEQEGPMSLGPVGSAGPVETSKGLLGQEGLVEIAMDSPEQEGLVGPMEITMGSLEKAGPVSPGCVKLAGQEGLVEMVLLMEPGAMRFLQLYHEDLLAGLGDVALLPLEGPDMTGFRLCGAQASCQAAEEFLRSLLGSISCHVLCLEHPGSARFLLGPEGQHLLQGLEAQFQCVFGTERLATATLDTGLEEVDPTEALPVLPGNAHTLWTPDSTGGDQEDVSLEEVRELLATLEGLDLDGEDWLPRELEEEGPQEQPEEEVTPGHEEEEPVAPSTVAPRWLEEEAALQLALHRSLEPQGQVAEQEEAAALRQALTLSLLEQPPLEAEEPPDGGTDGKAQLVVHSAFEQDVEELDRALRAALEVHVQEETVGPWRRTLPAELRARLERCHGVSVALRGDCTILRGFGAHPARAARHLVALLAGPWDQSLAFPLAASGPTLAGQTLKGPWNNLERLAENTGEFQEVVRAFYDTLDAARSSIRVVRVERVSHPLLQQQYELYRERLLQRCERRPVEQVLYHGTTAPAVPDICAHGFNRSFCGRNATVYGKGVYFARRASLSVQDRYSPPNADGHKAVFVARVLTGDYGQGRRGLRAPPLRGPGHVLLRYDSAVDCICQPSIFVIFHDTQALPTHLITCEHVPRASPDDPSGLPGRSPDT
# T3 sequence (Q8N3A8 whole entry): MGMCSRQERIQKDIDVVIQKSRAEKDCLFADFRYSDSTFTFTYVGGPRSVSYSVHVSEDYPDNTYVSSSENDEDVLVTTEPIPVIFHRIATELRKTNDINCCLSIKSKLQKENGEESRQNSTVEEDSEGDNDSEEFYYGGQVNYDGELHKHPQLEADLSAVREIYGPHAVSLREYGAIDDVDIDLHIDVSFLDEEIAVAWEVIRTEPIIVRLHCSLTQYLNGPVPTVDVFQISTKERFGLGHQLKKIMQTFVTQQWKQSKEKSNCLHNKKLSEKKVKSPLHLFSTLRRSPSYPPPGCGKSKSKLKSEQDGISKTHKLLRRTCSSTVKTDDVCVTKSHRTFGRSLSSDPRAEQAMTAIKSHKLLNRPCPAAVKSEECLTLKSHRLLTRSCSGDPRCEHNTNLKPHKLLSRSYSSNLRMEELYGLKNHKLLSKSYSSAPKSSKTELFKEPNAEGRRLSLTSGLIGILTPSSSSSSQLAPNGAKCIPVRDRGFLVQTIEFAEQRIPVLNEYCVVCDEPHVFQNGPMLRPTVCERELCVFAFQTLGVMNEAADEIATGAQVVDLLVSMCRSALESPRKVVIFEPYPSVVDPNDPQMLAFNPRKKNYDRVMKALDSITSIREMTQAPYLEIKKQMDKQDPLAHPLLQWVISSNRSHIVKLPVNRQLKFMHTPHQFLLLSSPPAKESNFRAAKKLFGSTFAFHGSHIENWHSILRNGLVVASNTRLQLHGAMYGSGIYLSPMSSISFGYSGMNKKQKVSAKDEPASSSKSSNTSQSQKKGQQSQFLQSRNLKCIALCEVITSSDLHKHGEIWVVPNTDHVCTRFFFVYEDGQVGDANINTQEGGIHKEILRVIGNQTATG
# T2 sequence (Q460N3 whole entry): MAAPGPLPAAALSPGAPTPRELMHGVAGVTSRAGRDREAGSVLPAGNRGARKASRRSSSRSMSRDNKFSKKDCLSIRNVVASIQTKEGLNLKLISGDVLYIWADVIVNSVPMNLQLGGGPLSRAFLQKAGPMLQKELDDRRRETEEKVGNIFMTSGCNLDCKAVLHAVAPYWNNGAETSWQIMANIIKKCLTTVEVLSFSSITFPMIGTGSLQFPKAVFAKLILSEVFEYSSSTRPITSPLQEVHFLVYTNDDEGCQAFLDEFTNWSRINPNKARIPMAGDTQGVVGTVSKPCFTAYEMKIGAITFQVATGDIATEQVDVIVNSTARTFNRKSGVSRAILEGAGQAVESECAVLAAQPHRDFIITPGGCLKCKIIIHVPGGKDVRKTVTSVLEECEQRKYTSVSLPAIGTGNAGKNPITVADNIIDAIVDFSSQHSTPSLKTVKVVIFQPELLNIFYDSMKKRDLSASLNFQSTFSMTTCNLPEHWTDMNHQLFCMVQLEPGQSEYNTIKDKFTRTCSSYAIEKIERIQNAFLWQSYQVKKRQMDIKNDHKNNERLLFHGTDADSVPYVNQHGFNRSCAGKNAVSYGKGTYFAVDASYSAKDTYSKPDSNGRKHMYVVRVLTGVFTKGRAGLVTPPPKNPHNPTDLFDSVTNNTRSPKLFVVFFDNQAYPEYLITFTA
# Sequence of PARP3 (Q9Y6F1 whole entry): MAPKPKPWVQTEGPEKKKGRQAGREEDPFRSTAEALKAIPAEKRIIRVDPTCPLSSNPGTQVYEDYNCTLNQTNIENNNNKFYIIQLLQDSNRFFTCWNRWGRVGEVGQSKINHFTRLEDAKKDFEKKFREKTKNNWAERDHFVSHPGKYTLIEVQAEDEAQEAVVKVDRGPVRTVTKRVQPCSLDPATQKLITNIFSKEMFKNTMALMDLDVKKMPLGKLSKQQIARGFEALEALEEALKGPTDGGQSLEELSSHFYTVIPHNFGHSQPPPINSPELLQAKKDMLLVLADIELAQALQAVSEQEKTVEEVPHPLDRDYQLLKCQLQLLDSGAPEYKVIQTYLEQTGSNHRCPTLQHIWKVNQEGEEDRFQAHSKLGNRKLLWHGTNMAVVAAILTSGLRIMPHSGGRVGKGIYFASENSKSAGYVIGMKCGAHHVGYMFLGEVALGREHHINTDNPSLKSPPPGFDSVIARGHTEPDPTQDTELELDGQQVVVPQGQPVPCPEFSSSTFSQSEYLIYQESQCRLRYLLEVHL
# Sequence of MARK4 (Q96L34 whole entry): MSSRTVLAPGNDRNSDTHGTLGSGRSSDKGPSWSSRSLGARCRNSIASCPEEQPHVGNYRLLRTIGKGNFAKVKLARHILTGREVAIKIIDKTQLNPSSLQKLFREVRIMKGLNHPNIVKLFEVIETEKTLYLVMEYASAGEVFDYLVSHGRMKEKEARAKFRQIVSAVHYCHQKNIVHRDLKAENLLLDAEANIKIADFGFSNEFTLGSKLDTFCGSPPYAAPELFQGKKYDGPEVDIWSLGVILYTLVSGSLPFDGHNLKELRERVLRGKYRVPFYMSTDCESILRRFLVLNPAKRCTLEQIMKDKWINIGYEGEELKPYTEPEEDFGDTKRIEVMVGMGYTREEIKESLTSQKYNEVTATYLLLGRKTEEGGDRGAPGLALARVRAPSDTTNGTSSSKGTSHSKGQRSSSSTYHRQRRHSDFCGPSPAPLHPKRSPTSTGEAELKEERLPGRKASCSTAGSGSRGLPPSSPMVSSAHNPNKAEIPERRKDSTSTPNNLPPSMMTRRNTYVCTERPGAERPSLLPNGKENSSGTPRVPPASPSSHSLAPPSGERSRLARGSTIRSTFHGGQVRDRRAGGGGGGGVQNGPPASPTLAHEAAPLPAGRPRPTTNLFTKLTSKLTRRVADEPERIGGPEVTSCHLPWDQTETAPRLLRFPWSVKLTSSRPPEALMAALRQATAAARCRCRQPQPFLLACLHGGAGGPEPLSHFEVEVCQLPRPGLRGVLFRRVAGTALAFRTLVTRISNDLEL
# Sequence of PARP12 (Q9H0J9 whole entry): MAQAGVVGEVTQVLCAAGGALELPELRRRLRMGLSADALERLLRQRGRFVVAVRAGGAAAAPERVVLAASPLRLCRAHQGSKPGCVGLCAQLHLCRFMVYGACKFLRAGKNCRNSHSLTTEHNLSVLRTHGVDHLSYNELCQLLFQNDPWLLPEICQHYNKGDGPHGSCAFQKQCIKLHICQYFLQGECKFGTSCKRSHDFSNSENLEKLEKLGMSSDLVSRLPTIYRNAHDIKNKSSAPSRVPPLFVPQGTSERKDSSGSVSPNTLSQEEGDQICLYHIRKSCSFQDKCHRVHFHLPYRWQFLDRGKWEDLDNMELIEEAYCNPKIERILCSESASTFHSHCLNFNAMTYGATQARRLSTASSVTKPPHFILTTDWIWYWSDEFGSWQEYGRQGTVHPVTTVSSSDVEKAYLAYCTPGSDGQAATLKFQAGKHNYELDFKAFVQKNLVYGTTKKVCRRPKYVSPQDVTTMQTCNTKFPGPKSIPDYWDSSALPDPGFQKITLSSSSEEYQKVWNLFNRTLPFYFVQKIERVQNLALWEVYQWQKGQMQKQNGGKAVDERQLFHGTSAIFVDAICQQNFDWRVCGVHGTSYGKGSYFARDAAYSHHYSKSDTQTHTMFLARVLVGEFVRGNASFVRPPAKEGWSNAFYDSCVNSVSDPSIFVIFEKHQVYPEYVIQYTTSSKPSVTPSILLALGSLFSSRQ
structure (smiles),measurement,setting,value
NC(N)=NCCC[C@H](NCN1CCN(C(=O)c2cc(Cc3n[nH]c(=O)c4ccccc34)ccc2F)CC1)C(=O)O [PPNR-4],IC50,AurB,> 10 µM
same,IC50,ACK,> 10 µM
same,IC50,JAK2,> 10 µM
same,IC50,EPHA2,> 10 µM
same,IC50,AKT1,> 10 µM
same,IC50,FAK,> 10 µM
same,IC50,MER,> 10 µM
same,IC50,AMPKα2/β1/γ1,> 10 µM
same,IC50,CLK3,> 10 µM
same,IC50,ITK,> 10 µM
same,Kd,CHEK2,> 10 µM
same,Kd,PARP14,> 10 µM
same,Kd,PARP10 [1],> 10 µM
same,Kd,PARP15 [2],> 10 µM
same,Kd,PARP13,> 10 µM
same,Kd,PARP3,> 10 µM
same,Kd,PARP2,> 10 µM
same,Kd,PARP8 [3],> 10 µM
same,Kd,ATR,> 10 µM
same,Kd,PARP7,> 10 µM
same,Kd,PARP9,> 10 µM
same,Kd,PARP12,> 10 µM
same,Kd,RAD51,> 10 µM
same,Kd,NRP2,> 10 µM
same,IC50,PARP10 [4],> 10 µM
same,IC50,PARP15 [5],> 10 µM
same,IC50,MARK4,> 10 µM
same,IC50,DDR1,> 10 µM
same,IC50,BRSK1,> 10 µM
same,IC50,FGFR3,> 10 µM
same,IC50,HCK,> 10 µM
same,IC50,DYRK3,> 10 µM
same,IC50,JAK3,> 10 µM
same,IC50,FLT3,> 10 µM
same,IC50,BRK,> 10 µM
same,IC50,NEK1,> 10 µM
same,IC50,INSR,> 10 µM
same,bioavailability,[6],66.5%
same,AUC,"[6]; SD rats, p.o",8020 ng·h/mL
same,Cmax,"[6]; SD rats, p.o",812 ng/mL
same,half-life,"[6]; SD rats, p.o",2.71 h
same,IC50,PARP8 [7],> 10 µM
same,IC50,LYNa,> 10 µM
